Results on 19 molecules are retold here after ChEMBL document CHEMBL1131364, “Novel modified tripeptide inhibitors of alpha 4 beta 7 mediated lymphoid cell adhesion to MAdCAM-1” (Bioorg Med Chem Lett, 1998).

Structures are written as SMILES. Numbered stars: 1 amine (or outer) side, 2 acyl side, 3 side chain; on linkers, the order of the positions; unused ones are H or OH. Peptide text beside a SMILES is read from it. * marks the point of attachment. CO = O=C([*:1])[*:2]; NHPh = c1ccc(N*)cc1

This test can be described thus: In vitro inhibition of RPMI 8866 cell adhesion to human MAdCAM-1 IgG chimera. In kind it is cell-based.
`CC(C)C[C@H](NC(=O)c1cc2ccccc2o1)C(=O)N[C@@H](CC(=O)O)C(=O)N[C@H](C(=O)NCc1ccc(F)c(F)c1)[C@@H](C)O`: the midpoint of inhibition, the IC50, lay at 5.2 µM.

Regarding `COc1ccc(CCNC(=O)[C@@H](NC(=O)[C@H](CC(=O)O)NC(=O)[C@H](CC(C)C)NC(=O)c2cc3ccccc3cn2)[C@@H](C)O)cc1`, the IC50 was above 25 µM.

In turn, `COc1ccc(CNC(=O)[C@@H](NC(=O)[C@H](CC(=O)O)NC(=O)[C@H](CC(C)C)NC(=O)c2cc3ccccc3cn2)[C@@H](C)O)cc1` gave an IC50 of 3 µM. This counts as single-digit micromolar.

With `CC(C)C[C@H](NC(=O)c1cc2ccccc2cn1)C(=O)N[C@@H](CC(=O)O)C(=O)N[C@H](C(=O)NCc1ccc(F)cc1)[C@@H](C)O`, the IC50 is 5.2 µM.

Consider `CC(C)C[C@H](NC(=O)c1coc2ccccc2c1=O)C(=O)N[C@@H](CC(=O)O)C(=O)NC(C(N)=O)C(O)c1ccccc1` (some centres undefined), for which the half-maximal inhibitory concentration (IC50) came out at 6.4 µM. This IC50 and that of the molecule before are within 1.5-fold of each other.

Molecule `CC(C)C[C@H](NC(=O)c1cc2ccccc2cn1)C(=O)N[C@@H](CC(=O)O)C(=O)N[C@@H](C(N)=O)[C@@H](C)O` came in with an IC50 of 3.9 µM.

For `CC(C)C[C@H](NC(=O)c1coc2ccccc2c1=O)C(=O)N[C@@H](CC(=O)O)C(=O)N[C@H](C(N)=O)[C@@H](C)O`, the IC50 was 1.3 µM.

`CC(C)C[C@H](NC(=O)c1ccc([N+](=O)[O-])cc1)C(=O)N[C@@H](CC(=O)O)C(=O)N[C@H](C(N)=O)[C@@H](C)O` gave a concentration for half-maximal inhibition (IC50) of 9 µM.

Take `CC(C)C[C@H](NC(=O)c1cc2ccccc2o1)C(=O)N[C@@H](CC(=O)O)C(=O)N[C@H](C(=O)NCc1ccc2c(c1)OCO2)[C@@H](C)O`: the midpoint of inhibition, the IC50, lay at 4.4 µM.

For the molecule `COc1ccc(C(=O)N[C@@H](CC(C)C)C(=O)N[C@@H](CC(=O)O)C(=O)N[C@H](C(N)=O)[C@@H](C)O)cc1`, the IC50 was above 25 µM.

`CC(C)C[C@H](NC(=O)c1cc2ccccc2cn1)C(=O)N[C@@H](CC(=O)O)C(=O)N[C@H](C(N)=O)[C@@H](C)O` displayed an IC50 of 3.1 µM.

As for `CC(C)C[C@H](NS(=O)(=O)c1ccccc1)C(=O)N[C@@H](CC(=O)O)C(=O)N[C@H](C(N)=O)[C@@H](C)O`, the 50% inhibitory concentration (IC50) was above 25 µM.

On to `CC(C)C[C@H](NC(=O)c1cc2ccccc2o1)C(=O)N[C@@H](CC(=O)O)C(=O)N[C@H](C(N)=O)[C@@H](C)O`, for which the IC50 was 2.3 µM. This counts as single-digit micromolar.

Molecule `CC(C)C[C@H](NC(=O)c1cc2ccccc2cn1)C(=O)N[C@@H](CC(=O)O)C(=O)N[C@H](C(=O)NCc1ccncc1)[C@@H](C)O` displayed an IC50 of 1.1 µM. Against the preceding molecule, the IC50 is about 2.1-fold lower.

`CC(C)C[C@H](NC(=O)/C=C/c1ccccc1)C(=O)N[C@@H](CC(=O)O)C(=O)N[C@H](C(N)=O)[C@@H](C)O` yielded an IC50 of 4.9 µM.

Consider `CC(C)C[C@H](NC(=O)c1coc2ccccc2c1=O)C(=O)N[C@@H](CC(=O)O)C(=O)N[C@H](C(N)=O)[C@H](C)O`, for which half-maximal inhibition (IC50) required 4.7 µM.

Consider `CC(=O)N[C@@H](CC(C)C)C(=O)N[C@@H](CC(=O)O)C(=O)N[C@H](C(N)=O)[C@@H](C)O` (Ac-Leu-Asp-Thr-NH2), for which it took 250 µM to reach half-maximal inhibition (IC50).

Take `CC(C)C[C@H](NC(=O)c1ccccc1)C(=O)N[C@@H](CC(=O)O)C(=O)N[C@H](C(N)=O)[C@@H](C)O` (HELM PEPTIDE1{[O=C(c1ccccc1)[*:2]].L.D.T.[am]}$$$$V2.0): the IC50 is 8.2 µM.

As to `CC(C)C[C@H](NC(=O)Nc1ccccc1)C(=O)N[C@@H](CC(=O)O)C(=O)N[C@H](C(N)=O)[C@@H](C)O` ({NHPh-CO}-Leu-Asp-Thr-NH2), the IC50 is above 25 µM.

A word on the IC50: it is the concentration needed to halve the response being measured. A high value points to lower potency.
